Test systems include ACHN renal; SF-295 CNS; COLO 205 colon; K-562 leukemia; SNB-75 CNS; RPMI-8226 leukemia; LOX IMVI melanoma; CCRF-CEM leukemia; HT29 colon; OVCAR-4 ovarian; RXF 393 renal.
What all share (assay): DTP human tumour cell line panel, 48 h

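Method: 48-hour compound exposure of cells in 96-well plates, five concentrations, linear interpolation of endpoints. Here, GI50 denotes the concentration required for 50% inhibition of growth. TGI: concentration producing complete growth inhibition.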 Where only a bound is given, the exact number is not on record here.

`O=C1CSC(=S)N1`: the TGI in the test on ACHN renal, in the test on SF-295 CNS, in the test on COLO 205 colon, with K-562 leukemia, in the test on SNB-75 CNS and in the test with RPMI-8226 leukemia was > 100 µM each time. The concentration for total growth inhibition (TGI) in the test on LOX IMVI melanoma and in the test on CCRF-CEM leukemia was > 100 µM in each case.
For `Cc1ccc2c(c1)C(=O)N(N(C)C)CC(=O)N2`, the TGI in the test with ACHN renal, in the test with SF-295 CNS, with COLO 205 colon, in the test on HT29 colon, with K-562 leukemia and with SNB-75 CNS was > 100 µM throughout. The TGI in the test with RPMI-8226 leukemia, in the test on LOX IMVI melanoma, with CCRF-CEM leukemia and in the test with OVCAR-4 ovarian was > 100 µM in each case.
In the case of `Fc1ccc(C2CC(c3cccc(Nc4ccncc4)c3)=NN2c2ccc(Cl)cc2)cc1` (stereo not given), the GI50 is 1.61 µM in the test with ACHN renal; 1.8 µM with SF-295 CNS; 1.99 µM in the test with HT29 colon; 1.86 µM with K-562 leukemia; 1.63 µM in the test with RXF 393 renal; 1.25 µM with SNB-75 CNS. Also, the results for the GI50 in the test with LOX IMVI melanoma, in the test on CCRF-CEM leukemia and in the test on OVCAR-4 ovarian were 1.69 µM, 3.12 µM and 1.64 µM, respectively. Also, the TGI in the test on ACHN renal is 2.96 µM; in the test on SF-295 CNS it was 3.23 µM; in the test with HT29 colon, 4.44 µM; in the test with K-562 leukemia it was 4.86 µM; in the test with RXF 393 renal, 3 µM; in the test with SNB-75 CNS it was 2.8 µM. Further, the concentration for total growth inhibition (TGI) in the test on LOX IMVI melanoma was 3.06 µM; in the test on CCRF-CEM leukemia it was 9.87 µM; in the test on OVCAR-4 ovarian, 3.05 µM.
`CC(=O)OCC1=C(C(=O)O)N2C(=O)C(NC(=O)CSc3ccncc3)C2SC1` (stereo not given): the TGI in the test with ACHN renal, in the test on SF-295 CNS, in the test on COLO 205 colon, in the test with HT29 colon, in the test on K-562 leukemia and in the test with RXF 393 renal was > 100 µM in each case. Further, the concentration for total growth inhibition (TGI) with SNB-75 CNS, in the test on RPMI-8226 leukemia, in the test with LOX IMVI melanoma and with CCRF-CEM leukemia was > 100 µM in each case.
Regarding `CC1CCC2(O)C3(C)CC4(O)OC2(C1O)C1(O)C3(O)C(OC(=O)c2ccc[nH]2)C(O)(C(C)C)C41C` (stereo not given), the concentration for total growth inhibition (TGI) with ACHN renal, in the test with SF-295 CNS, in the test with COLO 205 colon, in the test on HT29 colon, in the test with K-562 leukemia and with RXF 393 renal was > 100 µM in each case. Besides, the concentration for total growth inhibition (TGI) in the test on SNB-75 CNS, with RPMI-8226 leukemia, in the test on LOX IMVI melanoma, in the test on CCRF-CEM leukemia and in the test with OVCAR-4 ovarian was > 100 µM in each case.
For `O=C1Nc2ccccc2C1=Nc1cccc2ncccc12`, the TGI in the test with ACHN renal, with SF-295 CNS, in the test on COLO 205 colon, in the test with HT29 colon, in the test with K-562 leukemia and in the test with RXF 393 renal was > 100 µM in each case. Also, the TGI with SNB-75 CNS, with RPMI-8226 leukemia, with LOX IMVI melanoma and in the test on OVCAR-4 ovarian was > 100 µM in each case.
With `CCOC(=O)NC(Nc1ncccn1)(C(=O)OCC)C(F)(F)F` (stereo not given), the TGI with ACHN renal, in the test on SF-295 CNS, in the test on COLO 205 colon, with HT29 colon, with K-562 leukemia and in the test with RXF 393 renal was > 100 µM in each case. The TGI in the test with SNB-75 CNS, in the test on RPMI-8226 leukemia, in the test on LOX IMVI melanoma, in the test with CCRF-CEM leukemia and in the test with OVCAR-4 ovarian was > 100 µM throughout.
For `CC(C)(C)[Si](C)(C)OCC1OC(n2cnc3c(N)ncnc32)CC1O` (stereo not given), the TGI with SF-295 CNS, in the test with COLO 205 colon, with HT29 colon, in the test on K-562 leukemia, in the test on RXF 393 renal and in the test on SNB-75 CNS was > 100 µM throughout. Moreover, the concentration for total growth inhibition (TGI) in the test on RPMI-8226 leukemia, in the test with LOX IMVI melanoma, in the test with CCRF-CEM leukemia and in the test with OVCAR-4 ovarian was > 100 µM in each case.
Turning to `c1coc(CNc2ncnc3[nH]ncc23)c1`, the TGI with ACHN renal, with SF-295 CNS, in the test on COLO 205 colon, in the test with HT29 colon, with K-562 leukemia and in the test on RXF 393 renal was > 100 µM in each case. The TGI in the test on SNB-75 CNS, in the test with RPMI-8226 leukemia, in the test on LOX IMVI melanoma, in the test with CCRF-CEM leukemia and in the test with OVCAR-4 ovarian was > 100 µM each time.
As to `N#CN=[N+]([O-])c1ccc(C(=O)O)cc1`, the TGI in the test with ACHN renal is 32.7 µM; in the test on SF-295 CNS it was > 100 µM; in the test with HT29 colon it was 46.3 µM; in the test on K-562 leukemia, 38.4 µM; in the test on RXF 393 renal it was 30.1 µM; in the test on SNB-75 CNS, 38.9 µM. The concentration for total growth inhibition (TGI) was determined as 35.3 µM with RPMI-8226 leukemia, 51.9 µM in the test on CCRF-CEM leukemia and 35.8 µM with OVCAR-4 ovarian.
Consider `Cc1cc(C)n(-c2nsc3ccccc23)n1`, for which the TGI in the test with ACHN renal is > 100 µM; in the test on COLO 205 colon, > 100 µM; in the test on HT29 colon it was > 100 µM; in the test with K-562 leukemia it was > 100 µM; in the test with RXF 393 renal it was > 100 µM; in the test with SNB-75 CNS, 98.3 µM. The concentration for total growth inhibition (TGI) in the test on RPMI-8226 leukemia, in the test on LOX IMVI melanoma, in the test with CCRF-CEM leukemia and in the test with OVCAR-4 ovarian was > 100 µM each time.
`C/C(N=NS(=O)(=O)c1ccccc1)=C1\C=CC=CN1O`: the TGI in the test with ACHN renal, with SF-295 CNS, in the test on HT29 colon, in the test on SNB-75 CNS, in the test on RPMI-8226 leukemia and in the test with CCRF-CEM leukemia was > 100 µM each time. For the same molecule, the TGI in the test on OVCAR-4 ovarian was > 100 µM.
For the molecule `CSc1nc(NC2OCC(O)C(O)C2O)c(N)c(=O)[nH]1` (stereo not given), the TGI with SF-295 CNS, in the test on COLO 205 colon, with HT29 colon, in the test with K-562 leukemia, in the test on RXF 393 renal and in the test with SNB-75 CNS was > 100 µM in each case. Also, the TGI in the test on RPMI-8226 leukemia, in the test on LOX IMVI melanoma, in the test on CCRF-CEM leukemia and in the test with OVCAR-4 ovarian was > 100 µM each time.
Take `NCCCOc1ccc([N+](=O)[O-])cc1Cl`: the concentration for total growth inhibition (TGI) in the test with ACHN renal, in the test with SF-295 CNS, in the test on COLO 205 colon, with HT29 colon, in the test on K-562 leukemia and in the test with SNB-75 CNS was > 100 µM throughout. For the same molecule, the concentration for total growth inhibition (TGI) in the test on RPMI-8226 leukemia, with CCRF-CEM leukemia and with OVCAR-4 ovarian was > 100 µM in each case.
Take `O=C1NC2=C(CCCC/C2=N\O)C12CCCCC2`: the TGI in the test on ACHN renal, in the test with SF-295 CNS, with HT29 colon, in the test with K-562 leukemia, with RXF 393 renal and in the test with SNB-75 CNS was > 100 µM each time. Further, the concentration for total growth inhibition (TGI) with LOX IMVI melanoma and in the test on OVCAR-4 ovarian was > 100 µM each time.
Turning to `Brc1ccc(C2CC(c3cccc4ccccc34)=Nc3ccccc3S2)cc1` (stereo not given), the concentration for total growth inhibition (TGI) in the test on ACHN renal, in the test on SF-295 CNS, in the test on COLO 205 colon, with HT29 colon, with K-562 leukemia and in the test with RXF 393 renal was > 100 µM in each case. For the same molecule, the TGI in the test with SNB-75 CNS is > 100 µM; with RPMI-8226 leukemia, 51.6 µM; in the test with LOX IMVI melanoma it was > 100 µM; in the test on CCRF-CEM leukemia, 81.6 µM; in the test with OVCAR-4 ovarian it was > 100 µM.
As for `OCCOCCN1CCN(CCCN2c3ccccc3Sc3ccc(C(F)(F)F)cc32)CC1`, the TGI was 31.8 µM in the test on ACHN renal; 25.8 µM with SF-295 CNS; 3.57 µM in the test with COLO 205 colon; 7.65 µM with HT29 colon; 10.3 µM with K-562 leukemia; 9.85 µM in the test on RXF 393 renal. Besides, the total growth inhibition concentration (TGI) with SNB-75 CNS was determined as 13.6 µM; in the test on RPMI-8226 leukemia, 17.8 µM; in the test on LOX IMVI melanoma it was 15.1 µM; with CCRF-CEM leukemia it was 1.32 µM; in the test with OVCAR-4 ovarian it was 30.2 µM.
On to `CCN(CC)CCNc1ccc2nnn3c4ccc(C)cc4c(=O)c1c23`, for which the TGI with ACHN renal is 21.3 µM; in the test on SF-295 CNS, 18 µM; in the test on COLO 205 colon it was 20.6 µM; in the test on HT29 colon it was 16.1 µM; in the test with K-562 leukemia it was 25.9 µM; with SNB-75 CNS it was 23.2 µM. In addition, the total growth inhibition concentration (TGI) was 21.6 µM in the test with RPMI-8226 leukemia, 14.8 µM in the test with LOX IMVI melanoma, 25.6 µM with CCRF-CEM leukemia and 25.2 µM in the test with OVCAR-4 ovarian.
For `COc1ccc2nc3cc(Cl)ccc3c(NCCNC(=O)Cn3c(=O)n(C)c(=O)c4c3nc3c(c(=O)n(C)c(=O)n3C)[n+]4[O-])c2c1`, the TGI in the test with ACHN renal was > 100 µM; with SF-295 CNS, > 100 µM; in the test with COLO 205 colon it was > 100 µM; with HT29 colon, > 65.1 µM; in the test with K-562 leukemia, > 100 µM; in the test on RXF 393 renal, > 100 µM. The total growth inhibition concentration (TGI) in the test on SNB-75 CNS is 92.2 µM; in the test with RPMI-8226 leukemia, > 100 µM; in the test with LOX IMVI melanoma, > 100 µM; in the test on CCRF-CEM leukemia, > 100 µM; in the test with OVCAR-4 ovarian it was > 100 µM.

The values above are taken from PubChem BioAssay (NCI).
